Measurements as given in patent publication US20250221920A1, “Antioxidant Compositions” (THE BOOTS COMPANY PLC, priority 2022, published 2025).

Experiment: Total Antioxidant Capacity (TAC) assay, Cell Biolabs kit, copper ion reagent, absorbance at 490 nm
Type: biochemical
Conditions: triplicate
Experimental: Total antioxidant capacity (TAC) was determined using a kit (Cell Biolabs, Inc) as follows; the test samples were diluted in water and a buffer to reach a final antioxidant agent to buffer ratio ranging from 1:1 to 1:1,000,000. 20 ul of test sample or control (ascorbic acid or green tea) were added to the wells of 96 well plate, followed by 180 μL of 1X Reaction Buffer (provided with the kit). The absorbance of the reaction mix in each well was measured at 490 nm to get an initial reading. 50 μL of the 1X Copper Ion Reagent (provided with the kit) were added to each well to initiate the reaction. The reaction was allowed to carry on for 5 minutes on an orbital shaker and 50 μL of 1X Stop Solution (provided with the kit) added to each well to terminate the reaction. The colour change was assessed using a plate reader at 490 nm.
The stronger the colour change at the end of the reaction, the higher the spectrophotometric value, and the higher the antioxidant capacity of the antioxidant agents.
21 antioxidant compounds were tested in triplicate at antioxidant: buffer ratios ranging from 1:1 to 1:1,000,000.
The actual TAC of each of these compounds was calculated using the TAC assay described above, and compared with the predicted values to determine the % difference in TAC.

## Dimethylmethylmethoxy chromanol
Antioxidant:Buffer 1:1 (concentration 1)
  Total Antioxidant Capacity (TAC): 1.839
Antioxidant:Buffer 1:10 (concentration 0.1)
  Total Antioxidant Capacity (TAC): 1.807
Antioxidant:Buffer 1:100 (concentration 0.01)
  Total Antioxidant Capacity (TAC): 1.824
